# Laboratory results from patent publication US20040028714A1, “Composition having insect repellent characteristics” (priority 2000, published 2004).
# Several values for one entry are separate records, joined by “and”; a condition that tells them apart may be missing. Identical values can stand only once.
# Legend:
# Assay type in all cases: in vivo
# [1] = tested on: Black Ants (Ochetellus sp); assay: Ant repellency on half-treated formica (Example 4); conditions: 20 mg/m^2 on formica; for Number of Black Ants present, Treated Section / Number of Black Ants present, Untreated Section / Number of Black Ants, Dead: single replicates (n = 20); for Number of Black Ants present, Treated Section, Total / Number of Black Ants present, Untreated Section, Total / Number of Black Ants, Dead, Total: total of 4 replicates (80)
# Method: The effectiveness of compound 2 (example 1) as an insect repellent was determined using ants exposed to a formica surface partially treated/partially untreated with compound 2, and was directly compared to the repellency of the well known insect repellents Farnesol and Dihydrofarnesal.
# The study was conducted in an air conditioned laboratory at a temperature of 22°±2° C. under a normal day/night cycle, using Black Ants (Ochetellus sp) of mixed sex and age. The study ws conducted over a 3 day period and the repellent effectiveness assessed 1, 2 and 3 days after ant introduction.
# One half of a rectangle of formica 40 cm×30 cm was treated at 20 mg/m^2 with the test compounds. This was achieved by soaking a paper wipe (Rag On A Roll approximately 20 cm×20 cm) in a solution of the test compound in ethanol, squeezing out the excess liquid and wiping over the surface to give the required coverage. This was checked by weighing the cloth after application. The surface was allowed to dry. The other half was wiped with ethanol alone (untreated surface).
# The treated formica rectangle was placed on the bench and a glass ring (diameter 20 cm) was placed on the rectangle. This had been treated with fluon to prevent ant escape.
# A small plastic container 2 cm in diameter was placed on the formica, one on the treated surface and one on the untreated surface. The plastic container placed on the treated surface had repellent applied in the same way as the treated formica. The plastic container on the untreated surface was wiped with ethanol.
# 24 hours after treatment (1 day) 20 ants were added to the centre of the formica. No food and water was supplied for these ants. 2 hours after this the number of ants on the treated and untreated surfaces was counted.
# The above was repeated 3 times to provide a total of 4 replicates.
# The above was repeated at 2 days and 3 days. New ants were used at each time period.
# [2] = tested on: Casemaking Clothes Moths (Tinea pellionella); assay: Adult clothes moth repellency on treated woolen cloth (Example 5); conditions: fabric soaked in 20 g/L in ethanol, 2 days after moth introduction
# Method: The effectiveness of compound 2 (example 1) to reduce the presence of cloth moths on woolen cloth was determined and was directly compared to the repellency of the well known moth repellents Citronellol and Farnesol.
# The study was conducted in an air conditioned laboratory at a temperature of 22°±2° C. under a normal day/night cycle, using Casemaking Clothes Moths (Tinea pellionella) of mixed sex and age. The study is conducted over a 5 days period and the repellent effectiveness was assessed as follows:
# Adults—2 days after insect introduction
# A 10 cm×10 cm square of black woolen fabric free of bactericide) was soaked in a solution of the candidate repellent in ethanol at 20 g/L, squeezed and allowed to dry. The woollen square was placed in a small box (5 cm×10 cm×10 cm) which was open at one end to allow entry of adult clothes moth.
# A similar square of fabric treated with ethanol (control) was placed in another box of the same size.
# These two boxes were placed in an aquarium and 50 mixed sex adult moths were added. These were provided with food and water and left for 5 days.
# At the end of 2 days the number of adult moths in each box was counted.
# The above was repeated 3 times to provide 4 replicates.
# [3] = tested on: German cockroaches (Blatella Germanica); assay: Cockroach repellency screening on partially treated formica surface (Example 2); conditions: cockroaches, 20 mg/m^2 on formica
# Method: The effectiveness of compounds of formula I as an insect repellent was determined using German cockroaches exposed to a formica surface partially treated/partially untreated with a test compound of formula I. The study was conducted in an air conditioned laboratory at a temperature of 22°±2° C. under a normal day/night cycle, using German cockroaches (Blatella Germanica) of mixed sex and age. The study was conducted over a 3 day period and the repellent effectiveness assessed 1, 2 and 3 days after cockroach introduction. A rectangle of formica 40 cm×30 cm was treated at 20 mg/m^2 with a test compound of formula I. This was achieved by soaking a paper wipe (Rag on a Roll ca 20 cm×20 cm) in a solution of the test compound in ethanol, squeezing out the excess liquid and wiping over the surface to give the required coverage. This was checked by weighing the cloth after application. The surface was allowed to dry. A similar rectangle was wiped with ethanol alone (untreated surface). The treated formica rectangle was placed on the bench and a plastic container was placed on the rectangle. This had been treated with fluon to prevent cockroach escape. Two sheets of formica (10 cm×10 cm) were placed on the formica, one on the treated surface and one on the untreated surface. This acted as a cockroach harbourage. The formica sheet to be used in the treated section was treated at the same rate as the treated formica. The formica was placed on two 1 cm high bottle tops to allow cockroaches access under the formica. 20 German cockroaches were added (5 adults and 15 nymphs) to the centre of the formica. No food and water was supplied for these cockroaches. At 1, 2 and 3 days after cockroach introduction the number of cockroaches under each harbourage was counted. After each count the harbourage position was change to avoid the possibility of […] were replaced and new cockroaches were added to replace any dead cockroaches. The above was repeated 3 times to provide a total of 4 replicates.
# [4] = ants, average of days 1, 2 and 3
# [5] = share of moths found in the two boxes
smiles,measurement,setting,value
"CCNC(=O)C1CC(C)CCC1C(C)C (stereo not drawn) [Compound 2, N-ethyl-p-menthane-3-carboxamide]",ant repellency (in words),"[1]; 1, 2 and 3 days after treatment",superior to these two products
same,"Number of Black Ants present, Treated Section",[1]; day 1,0 (2×) and 2 and 1
same,"Number of Black Ants present, Untreated Section",[1]; day 1,20 (2×) and 18 and 19
same,"Number of Black Ants, Dead",[1]; day 1,0
same,"Number of Black Ants present, Treated Section, Total",[1]; day 1,3
same,"Number of Black Ants present, Untreated Section, Total",[1]; day 1,77
same,"Number of Black Ants, Dead, Total",[1]; day 1,0
same,"Number of Black Ants present, Treated Section",[1]; day 2,1 and 3 (2×) and 2
same,"Number of Black Ants present, Untreated Section",[1]; day 2,19 and 17 (2×) and 18
same,"Number of Black Ants, Dead",[1]; day 2,0
same,"Number of Black Ants present, Treated Section, Total",[1]; day 2,9
same,"Number of Black Ants present, Untreated Section, Total",[1]; day 2,71
same,"Number of Black Ants, Dead, Total",[1]; day 2,0
same,"Number of Black Ants present, Treated Section",[1]; day 3,0 and 1 and 2 and 3
same,"Number of Black Ants present, Untreated Section",[1]; day 3,20 and 19 and 18 and 17
same,"Number of Black Ants, Dead",[1]; day 3,0
same,"Number of Black Ants present, Treated Section, Total",[1]; day 3,6
same,"Number of Black Ants present, Untreated Section, Total",[1]; day 3,74
same,"Number of Black Ants, Dead, Total",[1]; day 3,0
same,Percentage Dead,"[1]; ants, 1 day after treatment",0%
same,"Percentage Present, Treated Section","[1]; ants, 1 day after treatment",3.7%
same,"Percentage Present, Untreated Section","[1]; ants, 1 day after treatment",96.3%
same,Percentage Dead,"[1]; ants, 2 days after treatment",0%
same,"Percentage Present, Treated Section","[1]; ants, 2 days after treatment",11.2%
same,"Percentage Present, Untreated Section","[1]; ants, 2 days after treatment",88.8%
same,Percentage Dead,"[1]; ants, 3 days after treatment",0%
same,"Percentage Present, Treated Section","[1]; ants, 3 days after treatment",7.5%
same,"Percentage Present, Untreated Section","[1]; ants, 3 days after treatment",92.5%
same,"Percentage Dead, Average",[1]; [4],0%
same,"Percentage Present, Treated Section, Average",[1]; [4],7.5%
same,"Percentage Present, Untreated Section, Average",[1]; [4],92.5%
same,"Moths Present, Treated Section, Total (%)",[2]; [5],(29.4%)
same,"Moths Present, Untreated Section, Total (%)",[2]; [5],(70.6%)
same,"The Number of Moths Present, Treated Section",[2]; single replicates (n = 50),6 and 7 and 11 and 8
same,"The Number of Moths Present, Untreated Section",[2]; single replicates (n = 50),9 and 19 and 27 and 22
same,"The Number of Moths Present, Treated Section, Total",[2]; total of 4 replicates,32
same,"The Number of Moths Present, Untreated Section, Total",[2]; total of 4 replicates,77
same,Percentage Dead,[3]; 1 day after treatment,0%
same,"Percentage Present, Treated Section",[3]; 1 day after treatment,17.5%
same,"Percentage Present, Untreated Section",[3]; 1 day after treatment,82.5%
same,Percentage Dead,[3]; 2 days after treatment,1.2%
same,"Percentage Present, Treated Section",[3]; 2 days after treatment,16.3%
same,"Percentage Present, Untreated Section",[3]; 2 days after treatment,82.5%
same,Percentage Dead,[3]; 3 days after treatment,2.5%
same,"Percentage Present, Treated Section",[3]; 3 days after treatment,13.8%
same,"Percentage Present, Untreated Section",[3]; 3 days after treatment,83.7%
same,"Percentage Present, Treated Section, Average","[3]; average of days 1, 2 and 3",15.9%
same,"Percentage Present, Untreated Section, Average","[3]; average of days 1, 2 and 3",82.9%
